Assay results: PubChem BioAssay AID248 (DTP/NCI, 2004)
Where “and” joins values, the source holds several entries; their conditions need not be identical. Identical values can stand only once. Toxic doses and inconclusive results are not listed. No stated cut-off is given here; in the data, active means T/C of 150% or more; inactive means T/C below 125%.

System: L1210 leukemia ip in BDF1 mice, survival T/C
Assay: NCI In Vivo Anticancer Drug Screen. Data for tumor model L1210 Leukemia (intraperitoneal) in B6D2F1 (BDF1) mice
Details: endpoint: mean survival time, higher = longer survival
Outline: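 In this screen, tumor-bearing mice given compound are compared to those given vehicle, and their survival values are reported as a treated-to-control quotient.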

[1] = dose: 100.0 mg/kg/injection, schedule: Q04DX003 (ip), vehicle: acetone
[2] = dose: 200.0 mg/kg/injection, schedule: Q04DX003 (ip), vehicle: acetone
[3] = dose: 100.0 mg/kg/injection, schedule: Q01DX009 (ip), vehicle: saline with Tween-80
[4] = dose: 100.0 mg/kg/injection, schedule: Q04DX003 (ip), vehicle: saline with Tween-80
[5] = dose: 200.0 mg/kg/injection, schedule: Q01DX009 (ip), vehicle: saline with Tween-80
[6] = dose: 200.0 mg/kg/injection, schedule: Q04DX003 (ip), vehicle: saline with Tween-80
[7] = dose: 400.0 mg/kg/injection, schedule: Q01DX009 (ip), vehicle: saline with Tween-80
[8] = dose: 100.0 mg/kg/injection, schedule: Q04DX003 (ip), vehicle: Klucel (hydroxypropylcellulose) (HPC)
[9] = dose: 200.0 mg/kg/injection, schedule: Q04DX003 (ip), vehicle: Klucel (hydroxypropylcellulose) (HPC)
[10] = dose: 400.0 mg/kg/injection, schedule: Q04DX003 (ip), vehicle: Klucel (hydroxypropylcellulose) (HPC)
[11] = dose: 100.0 mg/kg/injection, schedule: Q01DX001 (ip), vehicle: carboxymethylcellulose (CMC)
[12] = dose: 200.0 mg/kg/injection, schedule: Q01DX001 (ip), vehicle: carboxymethylcellulose (CMC)
[13] = dose: 400.0 mg/kg/injection, schedule: Q01DX001 (ip), vehicle: carboxymethylcellulose (CMC)
[14] = dose: 50.0 mg/kg/injection, schedule: Q01DX009 (ip), vehicle: saline with Tween-80
[15] = dose: 75.0 mg/kg/injection, schedule: Q01DX001 (ip), vehicle: carboxymethylcellulose (CMC)

Measured: T/C

NOCc1ccc(OCc2ccccc2)cc1
inactive: [1] 102 % of control | [2] 95 % of control

c1ccc([P+](c2ccccc2)(c2ccccc2)c2ccc([P+](c3ccccc3)(c3ccccc3)c3ccccc3)cc2)cc1
inactive: dose: 3.13 mg/kg/injection, schedule: Q04DX003 (ip), vehicle: saline 106 % of control | dose: 6.25 mg/kg/injection, schedule: Q04DX003 (ip), vehicle: saline 109 % of control | dose: 12.5 mg/kg/injection, schedule: Q04DX003 (ip), vehicle: saline 93 % of control and 102 % of control

Cc1cn(C2CC(OS(C)(=O)=O)C(CO)O2)c(=O)[nH]c1=O (centres undefined)
inactive: dose: 100.0 mg/kg/injection, schedule: Q01DX005 (ip), vehicle: saline 102 % of control | dose: 200.0 mg/kg/injection, schedule: Q01DX005 (ip), vehicle: saline 104 % of control

CCC(C(O)c1cccs1)C(O)(C(F)(F)F)C(F)(F)F (centres undefined)
inactive: [3] 95 % of control | [4] 95 % of control | [5] 116 % of control | [6] 95 % of control | [7] 97 % of control | dose: 400.0 mg/kg/injection, schedule: Q04DX003 (ip), vehicle: saline with Tween-80 93 % of control

NC(=O)CCCCCCCC(N)=O
inactive: [8] 89 % of control | [9] 89 % of control | [10] 94 % of control

CNC(=O)NS(=O)(=O)c1ccc([N+](=O)[O-])cc1
inactive: [11] 95 % of control | [12] 91 % of control | [13] 92 % of control

C[S+](C)CCCNC(=O)c1csc(CCNC(=O)c2ccccc2)n1
inactive: dose: 12.5 mg/kg/injection, schedule: Q01DX009 (ip), vehicle: saline with Tween-80 100 % of control | dose: 12.5 mg/kg/injection, schedule: Q04DX003 (ip), vehicle: saline with Tween-80 103 % of control | dose: 25.0 mg/kg/injection, schedule: Q01DX009 (ip), vehicle: saline with Tween-80 97 % of control | dose: 25.0 mg/kg/injection, schedule: Q04DX003 (ip), vehicle: saline with Tween-80 101 % of control | [14] 101 % of control | dose: 50.0 mg/kg/injection, schedule: Q04DX003 (ip), vehicle: saline with Tween-80 97 % of control

C=Cc1ccc(N)cc1
inactive: [14] 90 % of control | [4] 87 % of control | [5] 93 % of control | [6] 90 % of control

O=C(O)c1cccc(F)c1CBr
inactive: [15] 104 % of control

CN(C(=O)COc1ccc(N2C(N)=NC(N)=NC2(C)C)cc1Cl)c1ccc(S(=O)(=O)F)cc1
inactive: dose: 100.0 mg/kg/injection, schedule: Q01DX001 (ip), vehicle: saline with Tween-80 112 % of control | dose: 200.0 mg/kg/injection, schedule: Q01DX001 (ip), vehicle: saline with Tween-80 102 % of control | dose: 400.0 mg/kg/injection, schedule: Q01DX001 (ip), vehicle: saline with Tween-80 105 % of control

Cc1cc(C)c(NC(=S)NC(=O)c2ccco2)c(C)c1
inactive: [3] 97 % of control | [8] 98 % of control | [5] 93 % of control | [9] 96 % of control | [7] 95 % of control | [10] 102 % of control

O=C(OC(CC[P+](c1ccccc1)(c1ccccc1)c1ccccc1)(C(=O)c1ccccc1)c1ccccc1)c1ccccc1 (centres undefined)
inactive: dose: 3.0 mg/kg/injection, schedule: Q04DX003 (ip), vehicle: saline 98 % of control | dose: 6.0 mg/kg/injection, schedule: Q04DX003 (ip), vehicle: saline 103 % of control | dose: 12.0 mg/kg/injection, schedule: Q04DX003 (ip), vehicle: saline 94 % of control | dose: 15.0 mg/kg/injection, schedule: Q01DX001 (ip), vehicle: carboxymethylcellulose (CMC) 90 % of control | dose: 30.0 mg/kg/injection, schedule: Q01DX001 (ip), vehicle: carboxymethylcellulose (CMC) 98 % of control | dose: 60.0 mg/kg/injection, schedule: Q01DX001 (ip), vehicle: carboxymethylcellulose (CMC) 95 % of control | [15] 88 % of control

O=C1C(=O)c2cccc([N+](=O)[O-])c2-c2c1cccc2[N+](=O)[O-]
inactive: dose: 100.0 mg/kg/injection, schedule: Q01DX001 (ip), vehicle: saline 102 % of control | dose: 200.0 mg/kg/injection, schedule: Q01DX001 (ip), vehicle: saline 106 % of control | dose: 400.0 mg/kg/injection, schedule: Q01DX001 (ip), vehicle: saline 102 % of control

CC[n+]1c(C)ccc2ccccc21
inactive: dose: 25.0 mg/kg/injection, schedule: Q01DX009 (ip), vehicle: Klucel (hydroxypropylcellulose) (HPC) 91 % of control | dose: 25.0 mg/kg/injection, schedule: Q04DX003 (ip), vehicle: Klucel (hydroxypropylcellulose) (HPC) 99 % of control | dose: 50.0 mg/kg/injection, schedule: Q01DX001 (ip), vehicle: saline 95 % of control | dose: 50.0 mg/kg/injection, schedule: Q01DX009 (ip), vehicle: Klucel (hydroxypropylcellulose) (HPC) 91 % of control | dose: 50.0 mg/kg/injection, schedule: Q04DX003 (ip), vehicle: Klucel (hydroxypropylcellulose) (HPC) 99 % of control

CCN(c1ccc(Br)cc1)c1ccc(Br)cc1
inactive: [11] 100 % of control | [12] 94 % of control | [13] 105 % of control

C=CCOC(=O)N[C@H](CC(C)C)C(N)=O
inactive: dose: 100.0 mg/kg/injection, schedule: Q01DX001 (ip), vehicle: other 94 % of control | dose: 200.0 mg/kg/injection, schedule: Q01DX001 (ip), vehicle: other 110 % of control | dose: 400.0 mg/kg/injection, schedule: Q01DX001 (ip), vehicle: other 100 % of control

O=C(Nc1ccc(Cl)cc1Cl)Oc1ccc(F)cc1
inactive: [14] 94 % of control | [3] 94 % of control | [5] 102 % of control

Cc1cc(=O)n(C)c2ccccc12
inactive: [14] 97 % of control | [11] 93 % of control | dose: 100.0 mg/kg/injection, schedule: Q01DX009 (ip), vehicle: Klucel (hydroxypropylcellulose) (HPC) 104 % of control | [3] 101 % of control | [12] 93 % of control | dose: 200.0 mg/kg/injection, schedule: Q01DX009 (ip), vehicle: Klucel (hydroxypropylcellulose) (HPC) 93 % of control | [5] 94 % of control

CCCN=C(C)c1ccccc1O
inactive: [1] 97 % of control | [2] 95 % of control

Cc1cccc(Nc2cc(C)nc(N)n2)c1
inactive: dose: 25.0 mg/kg/injection, schedule: Q01DX Z (ip), vehicle: methylcellulose (MC) 105 % of control | dose: 50.0 mg/kg/injection, schedule: Q01DX Z (ip), vehicle: methylcellulose (MC) 100 % of control
